Results as given in US8415351B2 (priority 2007, dated 2013).
pEC50: −log10 of the molar value.

Experiments:
[1] = system: genotype 1b-Con1 subgenomic replicon cell line; assay: microbe, parasite or virus in culture; type: cell-based, HCV; settings: Hepatitis C virus, read-out: EC50 1b
[2] = system: genotype 1a-H77 subgenomic replicon cell line; assay: microbe, parasite or virus in culture; type: cell-based, HCV; settings: Hepatitis C virus, read-out: EC50 1a

SMILES	pEC50 [1]	pEC50 [2]
COc1c(-c2ccc3ncsc3c2)cc(-n2ccc(=O)[nH]c2=O)cc1C(C)(C)C [IB-L0-2.33, 1-(3-(benzo[d]thiazol-6-yl)-5-tert-butyl-4-methoxyphenyl)pyrimidine-2,4(1H,3H)-dione]	6.00 to 7.00	6.00 to 7.00
COc1c(/C=C/c2ccc(NS(C)(=O)=O)cc2-c2ncco2)cc(-n2ccc(=O)[nH]c2=O)cc1C(C)(C)C [IB-L1-1.26, (E)-N-(4-(3-tert-butyl-5-(2,4-dioxo-3,4-dihydropyrimidin-1(2H)-yl)-2-methoxystyryl)-3-(oxazol-2-yl)phenyl)methanesulfonamide]	> 8.00	7.00 to 8.00
COc1c(-c2nc3ccc([N+](=O)[O-])cc3o2)cc(N2CCC(=O)NC2=O)cc1C(C)(C)C [IA-L0-2.6, 1-(3-tert-butyl-4-methoxy-5-(6-nitrobenzo[d]oxazol-2-yl)phenyl) dihydropyrimidine-2,4(1H,3H)-dione]	< 6.00	< 6.00
COc1c(/C=C(\Cl)c2ccc([N+](=O)[O-])cc2)cc(N2CCC(=O)NC2=O)cc1C(C)(C)C [IA-L1-1.23, 1-{3-tert-butyl-5-[(Z)-2-chloro-2-(4-nitro-phenyl)-vinyl]-4-methoxy-phenyl}-dihydro-pyrimidine-2,4-dione]	< 6.00	< 6.00
COc1c(-c2ccccc2)cc(-n2ccc(=O)[nH]c2=O)cc1-c1ccc2cc(NS(C)(=O)=O)ccc2c1 [IB-L0-2.71, N-(6-(5-(2,4-dioxo-3,4-dihydropyrimidin-1(2H)-yl)-2-methoxy-biphenyl-3-yl)naphthalen-2-yl)methanesulfonamide]	7.00 to 8.00	6.00 to 7.00
COc1c(/C=C(\C)c2ccc(NS(C)(=O)=O)cc2)cc(N2CCC(=O)NC2=O)cc1C(C)(C)C [IA-L1-1.6, (E)-N-(4-(1-(3-tert-butyl-5-(2,4-dioxotetrahydropyrimidin-1(2H)-yl)-2-methoxyphenyl)prop-1-en-2-yl)phenyl)methanesulfonamide]	7.00 to 8.00	7.00 to 8.00
COc1c(-c2ccoc2)cc(-n2ccc(=O)[nH]c2=O)cc1-c1ccc2cc(NS(C)(=O)=O)ccc2c1 [IB-L0-2.64, N-(6-(5-(2,4-dioxo-3,4-dihydropyrimidin-1(2H)-yl)-3-(furan-3-yl)-2-methoxyphenyl)naphthalen-2-yl)methanesulfonamide]	> 8.00	6.00 to 7.00
COc1c(-c2ccc3cc(NS(C)(=O)=O)ccc3c2)cc(-n2ccc(=O)[nH]c2=O)cc1C(C)(C)C [IB-L0-2.3, N-(6-(3-tert-butyl-5-(2,4-dioxo-3,4-dihydropyrimidin-1(2H)-yl)-2-methoxyphenyl)naphthalen-2-yl)methanesulfonamide]	> 8.00	> 8.00
COc1c(-c2ccc3cc(NS(C)(=O)=O)ccc3c2)cc(-n2ccc(=O)[nH]c2=O)cc1S(C)(=O)=O [IB-L0-2.68, N-(6-(5-(2,4-dioxo-3,4-dihydropyrimidin-1(2H)-yl)-2-methoxy-3-(methylsulfonyl)phenyl)naphthalen-2-yl)methanesulfonamide]	6.00 to 7.00	< 6.00
COc1c(/C=C/c2ccc(NS(C)(=O)=O)cc2-c2ncc[nH]2)cc(-n2ccc(=O)[nH]c2=O)cc1C(C)(C)C [IB-L1-1.16, (E)-N-(4-(3-tert-butyl-5-(2,4-dioxo-3,4-dihydropyrimidin-1(2H)-yl)-2-methoxystyryl)-3-(1H-imidazol-2-yl)phenyl)methanesulfonamide]	7.00 to 8.00	6.00 to 7.00
COc1c(NS(C)(=O)=O)cc(-n2ccc(=O)[nH]c2=O)cc1-c1ccc2cc(NS(C)(=O)=O)ccc2c1 [IB-L0-2.75, N-(5-(2,4-dioxo-3,4-dihydropyrimidin-1(2H)-yl)-2-methoxy-3-(6-(methylsulfonamido)naphthalen-2-yl)phenyl)methanesulfonamide]	< 6.00	< 6.00
COc1c(-c2ccc3c(c2)CC=C3CN(C)S(C)(=O)=O)cc(-n2ccc(=O)[nH]c2=O)cc1C(C)(C)C [IB-L0-2.16, N-((6-(3-tert-butyl-5-(2,4-dioxo-3,4-dihydropyrimidin-1(2H)-yl)-2-methoxyphenyl)-1H-inden-3-yl)methyl)-N-methylmethanesulfonamide]	> 8.00	6.00 to 7.00
COc1c(/C=C/c2ccc(NS(C)(=O)=O)cc2)cc(-n2ccc(=O)[nH]c2=O)cc1C(C)(C)CO [IB-L1-1.45, (E)-N-(4-(5-(2,4-dioxo-3,4-dihydropyrimidin-1(2H)-yl)-3-(1-hydroxy-2-methylpropan-2-yl)-2-methoxystyryl)phenyl)methanesulfonamide]	> 8.00	7.00 to 8.00
COCC(C)(C)c1cc(-n2ccc(=O)[nH]c2=O)cc(-c2ccc3cc(NS(C)(=O)=O)ccc3c2)c1OC [IB-L0-2.66, N-(6-(5-(2,4-dioxo-3,4-dihydropyrimidin-1(2H)-yl)-2-methoxy-3-(1-methoxy-2-methylpropan-2-yl)phenyl)naphthalen-2-yl)methanesulfonamide]	7.00 to 8.00	6.00 to 7.00
CO/C(=C\c1cc(N2CCC(=O)NC2=O)cc(C(C)(C)C)c1OC)c1ccc(NS(C)(=O)=O)cc1 [IA-L1-1.17, (Z)—N-(4-(2-(3-tert-butyl-5-(2,4-dioxotetrahydropyrimidin-1(2H)-yl)-2-methoxyphenyl)-1-methoxyvinyl)phenyl)methanesulfonamide]	7.00 to 8.00	7.00 to 8.00
COc1c(/C=C/c2ccc([N+](=O)[O-])cc2)cc(N2CCC(=O)NC2=O)cc1C(C)(C)C [IA-L1-1.22, (E)-1-(3-tert-butyl-4-methoxy-5-(4-nitrostyryl)phenyl)dihydropyrimidine-2,4(1H,3H)-dione]	6.00 to 7.00	< 6.00
COc1c(-c2nc3ccc(NS(C)(=O)=O)cc3s2)cc(N2CCC(=O)NC2=O)cc1C(C)(C)C [IA-L0-2.2, N-(2-(3-tert-butyl-5-(2,4-dioxotetrahydropyrimidin-1(2H)-yl)-2-methoxyphenyl)benzo[d]thiazol-6-yl)methanesulfonamide]	7.00 to 8.00	6.00 to 7.00
COc1c(-c2ccc3nc(NS(C)(=O)=O)cnc3c2)cc(-n2ccc(=O)[nH]c2=O)cc1C(C)(C)C [IB-L0-2.26, N-(6-(3-tert-butyl-5-(2,4-dioxo-3,4-dihydropyrimidin-1(2H)-yl)-2-methoxyphenyl)quinoxalin-2-yl)methanesulfonamide]	6.00 to 7.00	< 6.00
COc1c(/C=C(/F)c2ccc(NS(C)(=O)=O)cc2)cc(N2CCC(=O)NC2=O)cc1C(C)(C)C [IA-L1-1.5, (E)-N-(4-(2-(3-tert-butyl-5-(2,4-dioxotetrahydropyrimidin-1(2H)-yl)-2-methoxyphenyl)-1-fluorovinyl)phenyl)methanesulfonamide]	> 8.00	7.00 to 8.00
COc1c(-c2nc3cc(NS(C)(=O)=O)ccc3[nH]2)cc(N2CCC(=O)NC2=O)cc1C(C)(C)C [IA-L0-2.1, N-(2-(3-tert-butyl-5-(2,4-dioxotetrahydropyrimidin-1(2H)-yl)-2-methoxyphenyl)-1H-benzo[d]imidazol-5-yl)methanesulfonamide]	< 6.00	< 6.00
COc1c(-c2ccsc2)cc(-n2ccc(=O)[nH]c2=O)cc1-c1ccc2cc(NS(C)(=O)=O)ccc2c1 [IB-L0-2.53, N-(6-(5-(2,4-dioxo-3,4-dihydropyrimidin-1(2H)-yl)-2-methoxy-3-(thiophen-3-yl)phenyl)naphthalen-2-yl)methanesulfonamide]	7.00 to 8.00	7.00 to 8.00
COc1c(-c2ccc3c(CNS(C)(=O)=O)noc3c2)cc(-n2ccc(=O)[nH]c2=O)cc1C(C)(C)C [IB-L0-2.45, N-((6-(3-tert-butyl-5-(2,4-dioxo-3,4-dihydropyrimidin-1(2H)-yl)-2-methoxyphenyl)benzo[d]isoxazol-3-yl)methyl)methanesulfonamide]	6.00 to 7.00	< 6.00
COc1c(-c2ccc3cc(NS(C)(=O)=O)ccc3c2)cc(-n2ccc(=O)[nH]c2=O)cc1-c1cccs1 [IB-L0-2.61, N-(6-(5-(2,4-dioxo-3,4-dihydropyrimidin-1(2H)-yl)-2-methoxy-3-(thiophen-2-yl)phenyl)naphthalen-2-yl)methanesulfonamide]	7.00 to 8.00	6.00 to 7.00
COc1c(/C=C(\C)c2ccc([N+](=O)[O-])cc2)cc(N2CCC(=O)NC2=O)cc1C(C)(C)C [IA-L1-1.24, 1-{3-tert-butyl-4-methoxy-5-[(E)-2-(4-nitro-phenyl)-propenyl]-phenyl}-dihydro-pyrimidine-2,4-dione]	< 6.00	< 6.00
COc1c(/C=C/c2ccc(NS(C)(=O)=O)cc2C=O)cc(-n2ccc(=O)[nH]c2=O)cc1C(C)(C)C [IB-L1-1.6, N-(4-{(E)-2-[3-tert-Butyl-5-(2,4-dioxo-3,4-dihydro-2H-pyrimidin-1-yl)-2-methoxy-phenyl]-vinyl}-3-formyl-phenyl)-methanesulfonamide]	> 8.00	> 8.00
COc1c(-c2ccc3c(c2)CC[C@@]3(F)CNS(C)(=O)=O)cc(-n2ccc(=O)[nH]c2=O)cc1C(C)(C)C [IB-L0-2.20, (S)—N-((5-(3-tert-butyl-5-(2,4-dioxo-3,4-dihydropyrimidin-1(2H)-yl)-2-methoxyphenyl)-1-fluoro-2,3-dihydro-1H-inden-1-yl)methyl)methanesulfonamide]	7.00 to 8.00	6.00 to 7.00
COc1c(-c2ccc3c(c2)CCN3S(C)(=O)=O)cc(-n2ccc(=O)[nH]c2=O)cc1C(C)(C)C [IB-L0-2.32, 1-(3-tert-butyl-4-methoxy-5-(1-(methylsulfonyl)indolin-5-yl)phenyl)pyrimidine-2,4(1H,3H)-dione]	7.00 to 8.00	6.00 to 7.00
COc1c(/C=C/c2ccc(F)cc2)cc(N2CCC(=O)NC2=O)cc1C(C)(C)C [IA-L1-1.12, (E)-1-(3-tert-butyl-5-(4-fluorostyryl)-4-methoxyphenyl) dihydropyrimidine-2,4(1H,3H)-dione]	6.00 to 7.00	6.00 to 7.00
COc1c(/C=C/c2ccc(NS(C)(=O)=O)cc2)cc(N2CCC(=O)NC2=O)cc1C(C)(C)C [IA-L1-1.9, (E)-N-(4-(3-tert-butyl-5-(2,4-dioxotetrahydropyrimidin-1(2H)-yl)-2-methoxystyryl)phenyl)methanesulfonamide]	> 8.00	7.00 to 8.00
